Assays:
[1] = Cytotoxicity against human HPAEpic cells assessed as reduction in cell viability after 24 hrs by MTT assay; type: cell-based; conditions: for CC50 at 24 h: HPAEpic cells; for CC50: 24 h
[2] = Cytotoxicity against human IOSE-80 cells assessed as reduction in cell viability after 24 hrs by MTT assay; type: cell-based; conditions: for CC50 at 24 h: IOSE-80 cells; for CC50: 24 h
[3] = (§1) Cytotoxicity against human L02 cells assessed as reduction in cell viability after 24 hrs by MTT assay; type: cell-based; conditions: L02 cells
A549 = test: cells; conditions: Homo sapiens, A549, 24 h
Description: Antiproliferative activity against human A549 cells assessed as reduction in cell viability after 24 hrs by MTT assay

OVCAR-3 = test: cells; conditions: Homo sapiens, OVCAR-3, 24 h
Description: Antiproliferative activity against human OVCAR3 cells assessed as reduction in cell viability after 24 hrs by MTT assay

HepG2 = test: cells; conditions: Homo sapiens, HepG2, 24 h
Description: Antiproliferative activity against human HepG2 cells assessed as reduction in cell viability after 24 hrs by MTT assay

SGC-7901 = test: cells; conditions: Homo sapiens, SGC-7901, 24 h
Description: Antiproliferative activity against human SGC7901 cells assessed as reduction in cell viability after 24 hrs by MTT assay

[4] = (§2) Cytotoxicity against human GES-1 cells assessed as reduction in cell viability after 24 hrs by MTT assay; type: cell-based, GES1; conditions: GES-1 cells
L02 = test: as §1; type: cell-based; conditions: l02, 24 h
GES1 = test: as §2; type: cell-based; conditions: ges1, 24 h

| Compound | CC50 at 24 h [1] [µM] | CC50 at 24 h [2] [µM] | CC50 at 24 h [3] [µM] | IC50 (A549) [µM] | IC50 (OVCAR-3) [µM] | IC50 (HepG2) [µM] | IC50 (SGC-7901) [µM] | CC50 at 24 h [4] [µM] | CC50 [1] | CC50 [2] | CC50 (L02) | CC50 (GES1) |
| --- | --- | --- | --- | --- | --- | --- | --- | --- | --- | --- | --- | --- |
| O=c1[nH]cc(S(=O)(=O)Nc2ccccc2-c2cn(-c3ccccc3)nn2)c(=O)[nH]1 | 14.3 | 10.5 | 10.6 | 6.79 | 6.65 | 6.16 | 11.8 | > 100 |  |  |  |  |
| O=c1[nH]cc(S(=O)(=O)Nc2ccccc2-c2cn(-c3ccccc3Cl)nn2)c(=O)[nH]1 | 17.7 | 11.2 | 22.8 | 2.74 | 3.17 | 2.24 | 6.52 | 20.8 |  |  |  |  |
| Cc1ccc(-n2cc(-c3ccccc3NS(=O)(=O)c3c[nH]c(=O)[nH]c3=O)nn2)cc1 | 7.03 | 33.4 | > 100 | 2.91 | 2.19 | 8.35 | 6.39 | 32.4 |  |  |  |  |
| O=c1[nH]cc(S(=O)(=O)Nc2cccc(-c3cn(-c4ccccc4Cl)nn3)c2)c(=O)[nH]1 | 12.3 | 17.9 | 11.5 | 2.73 | 5.37 | 4.03 | 3.01 | 14 |  |  |  |  |
| O=c1[nH]cc(S(=O)(=O)Nc2cccc(-c3cn(-c4cccc(F)c4)nn3)c2)c(=O)[nH]1 |  |  |  | 7.2 | > 20 | > 20 | > 20 |  | Non-Toxic | Non-Toxic | Non-Toxic | Non-Toxic |
| O=c1[nH]cc(S(=O)(=O)Nc2ccc(-c3cn(-c4ccccc4)nn3)cc2)c(=O)[nH]1 |  |  |  | 7.17 | 18 | 18 | 18.8 |  | Non-Toxic | Non-Toxic | Non-Toxic | Non-Toxic |
| O=c1[nH]cc(S(=O)(=O)Nc2ccccc2-c2cn(-c3cccc(Cl)c3)nn2)c(=O)[nH]1 | > 100 | > 100 | > 100 | 2.34 | 2.18 | 2.46 | 2.27 | > 100 |  |  |  |  |
| O=c1[nH]cc(S(=O)(=O)Nc2ccc(-c3cn(-c4cccc(Cl)c4)nn3)cc2)c(=O)[nH]1 | 13.8 | 14.3 | 19 | 2.31 | 2.75 | 2.02 | 2.46 | 7.57 |  |  |  |  |
| Cc1ccccc1-n1cc(-c2ccccc2NS(=O)(=O)c2c[nH]c(=O)[nH]c2=O)nn1 | 9.67 | 17.4 | 56.6 | 3.21 | 6.55 | 13.9 | 9.57 | 19.9 |  |  |  |  |
| O=c1[nH]cc(S(=O)(=O)Nc2ccc(-c3cn(-c4cccc(F)c4)nn3)cc2)c(=O)[nH]1 |  |  |  | 9.98 | > 20 | > 20 | > 20 |  | Non-Toxic | Non-Toxic | Non-Toxic | Non-Toxic |
| O=c1[nH]cc(S(=O)(=O)Nc2ccccc2-c2cn(-c3ccc(F)cc3)nn2)c(=O)[nH]1 |  |  |  | 6.39 | > 20 | > 20 | > 20 |  | Non-Toxic | Non-Toxic | Non-Toxic | Non-Toxic |
| Cc1cccc(-n2cc(-c3ccc(NS(=O)(=O)c4c[nH]c(=O)[nH]c4=O)cc3)nn2)c1 | 31.3 | 29.3 | 39 | 6.96 | 7.49 | > 20 | 17.4 | 28.3 |  |  |  |  |
| Cc1ccccc1-n1cc(-c2ccc(NS(=O)(=O)c3c[nH]c(=O)[nH]c3=O)cc2)nn1 |  |  |  | 3.13 | 7.31 | 14.5 | 13.6 |  | Non-Toxic | Non-Toxic | Non-Toxic | Non-Toxic |
| Cc1ccccc1-n1cc(-c2cccc(NS(=O)(=O)c3c[nH]c(=O)[nH]c3=O)c2)nn1 | 10.2 | 36.4 | 15.3 | 5.47 | 6.23 | 9.57 | 9.23 | 21.5 |  |  |  |  |
| O=c1[nH]cc(S(=O)(=O)Nc2ccc(-c3cn(-c4ccccc4Cl)nn3)cc2)c(=O)[nH]1 | 17 | 22.2 | 19.3 | 2.81 | 4.27 | 2.23 | 2.68 | 16.4 |  |  |  |  |
| Cc1cccc(-n2cc(-c3ccccc3NS(=O)(=O)c3c[nH]c(=O)[nH]c3=O)nn2)c1 | 12.3 | 15.8 | 21.9 | 1.87 | 3.15 | 3.62 | 3.51 | 23.7 |  |  |  |  |
| O=c1[nH]cc(S(=O)(=O)Nc2cccc(-c3cn(-c4ccccc4F)nn3)c2)c(=O)[nH]1 |  |  |  | > 20 | 12.5 | 13.9 | 16 |  | Non-Toxic | Non-Toxic | Non-Toxic | Non-Toxic |
| Cc1ccc(-n2cc(-c3ccc(NS(=O)(=O)c4c[nH]c(=O)[nH]c4=O)cc3)nn2)cc1 | 29.1 | 30.5 |  | 5.56 | 5.63 | 11.6 | 8.35 |  |  |  | Non-Toxic | Non-Toxic |
| O=c1[nH]cc(S(=O)(=O)Nc2cccc(-c3cn(-c4ccccc4)nn3)c2)c(=O)[nH]1 | 41.5 |  | > 100 | 12.7 | > 20 | 11.2 | 17.2 | 22.5 |  | Non-Toxic |  |  |
| O=c1[nH]cc(S(=O)(=O)Nc2ccccc2-c2cn(-c3cccc(F)c3)nn2)c(=O)[nH]1 | > 100 |  |  | 8.13 | > 20 | > 20 | > 20 |  |  | Non-Toxic | Non-Toxic | Non-Toxic |
| Cc1cccc(-n2cc(-c3cccc(NS(=O)(=O)c4c[nH]c(=O)[nH]c4=O)c3)nn2)c1 | 23.7 | 23.4 | 28.3 | 3.55 | 4.08 | 7.05 | 9.1 | 18.5 |  |  |  |  |
| O=c1[nH]cc(S(=O)(=O)Nc2cccc(-c3cn(-c4ccc(F)cc4)nn3)c2)c(=O)[nH]1 |  |  |  | > 20 | > 20 | > 20 | > 20 |  | Non-Toxic | Non-Toxic | Non-Toxic | Non-Toxic |
| O=c1[nH]cc(S(=O)(=O)Nc2ccc(-c3cn(-c4ccccc4F)nn3)cc2)c(=O)[nH]1 | 32.6 | > 100 | > 100 | 5.96 | 8.03 | > 20 | 7.27 | > 100 |  |  |  |  |
| O=c1[nH]cc(S(=O)(=O)Nc2ccc(-c3cn(-c4ccc(F)cc4)nn3)cc2)c(=O)[nH]1 | > 100 |  |  | 9.72 | > 20 | > 20 | > 20 | > 100 |  | Non-Toxic | Non-Toxic |  |
| O=c1[nH]cc(S(=O)(=O)Nc2ccc(-c3cn(-c4ccc(Cl)cc4)nn3)cc2)c(=O)[nH]1 | 14.8 | 17.7 | 42.9 | 1.21 | 2.16 | 1.98 | 1.83 | 23.3 |  |  |  |  |
| O=c1[nH]cc(S(=O)(=O)Nc2cccc(-c3cn(-c4cccc(Cl)c4)nn3)c2)c(=O)[nH]1 | 10.2 | 18.9 | 8.33 | 2.43 | 3.41 | 4.2 | 3.95 | 26.2 |  |  |  |  |
| O=c1[nH]cc(S(=O)(=O)Nc2ccccc2-c2cn(-c3ccccc3F)nn2)c(=O)[nH]1 | > 100 | > 100 | > 100 | 7.37 | 15.3 | 12.5 | 10.8 | > 100 |  |  |  |  |
| Cc1ccc(-n2cc(-c3cccc(NS(=O)(=O)c4c[nH]c(=O)[nH]c4=O)c3)nn2)cc1 | 10.6 | 12.8 | 23.1 | 3.63 | 3.54 | > 20 | 9.43 | 15.8 |  |  |  |  |
| O=c1[nH]cc(S(=O)(=O)Nc2cccc(-c3cn(-c4ccc(Cl)cc4)nn3)c2)c(=O)[nH]1 | 14 | 6.26 | 9.86 | 1.73 | 2.04 | 1.96 | 2.16 | 11.3 |  |  |  |  |

From ChEMBL document CHEMBL4346687, “Design, synthesis and biological evaluation of novel uracil derivatives bearing 1, 2, 3-triazole moiety as thymidylate synthase (TS) inhibitors and as potential antitumor drugs” (Eur J Med Chem, 2019)
